Measured values published in patent publication US20180000778A1, “SMALL MOLECULE ANTAGONISTS OF DUSP5 AND METHODS OF USE” (THE MEDICAL COLLEGE OF WISCONSIN, INC., priority 2015, published 2018).
Values joined by “and” are separate entries in the source; they are usually repeats but may differ in a detail not shown here. Equal entries are not always repeated. Structures can show the parent of a compound that is named as a salt.

Legend:
phosphatase [1] = conditions: cited from earlier work
full-length DUSP5 = molecular target: T1, full-length DUSP5 (Homo sapiens, UniProt Q16690); test: ERK dephosphorylation assay, full-length DUSP5 with pERK2 substrate, western blot; type: biochemical
T1 construct: an assay was development using ERK2 and full-length DUSP5
T1 sequence (Q16690 1-384): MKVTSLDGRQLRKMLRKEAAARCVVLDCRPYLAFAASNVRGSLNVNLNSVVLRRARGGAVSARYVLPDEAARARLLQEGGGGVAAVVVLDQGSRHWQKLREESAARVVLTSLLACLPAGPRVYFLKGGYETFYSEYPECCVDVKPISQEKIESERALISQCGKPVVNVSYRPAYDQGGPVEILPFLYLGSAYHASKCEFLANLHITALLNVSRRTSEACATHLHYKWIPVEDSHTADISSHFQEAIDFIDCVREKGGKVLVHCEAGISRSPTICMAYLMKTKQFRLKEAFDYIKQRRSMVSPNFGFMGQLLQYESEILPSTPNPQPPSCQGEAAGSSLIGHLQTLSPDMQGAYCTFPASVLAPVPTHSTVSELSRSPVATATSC
Protocol: ERK Dephosphorylation Assay.
For this assay, 10 ng of GST-tagged recombinant phosphorylated ERK2 (R&D Systems, 1230-KS) was incubated with and without the indicated DUSP5 proteins (0.5 nM final concentration) for 15 min at room temperature, with or without the indicated drugs. The reactions were halted with 2× Laemmli sample buffer and subjected to SDS-PAGE. The proteins were transferred to polyvinylidene difluoride (PVDF) and immunoblotted using antibodies to pERK (Cell Signaling Tech., #9106) and Total ERK (Cell Signaling Tech., #9102). Bound antibodies were visualized using horseradish peroxidase-linked anti-mouse IgG (Cell Signaling Tech, #7076S) and anti-rabbit IgG (Cell Signaling Tech, #7074S), respectively, and ECL reagents (Pierce, 34708) according to the manufacturer's protocol. IC50s were calculated using GraphPad Prism 6 software.
And, the native substrate for DUSP5 is the pERK2 protein, which is much larger and capable of a more complicated range of inter-molecular interactions that the pNPP substrate (which is intended only to mimic the phospho-tyrosine of pERK). […] To this end, an assay was development using ERK2 and full-length DUSP5, monitoring pERK levels in a western blot, as a function of pERK2 substrate concentration. […] This surprising increase in potency for CSD3-2320 (but not NTS) with full length DUSP5 underscores the importance of performing secondary assays with biologically relevant forms of enzyme and substrate.

DUSP5 PD(WT) [2] = molecular target: T2, DUSP5 PD(WT) (Homo sapiens, UniProt Q16690); test: pNPP phosphatase activity assay with DUSP5 PD(WT); type: biochemical
T2 construct: hexa-histidine (N); made in house; host or cells: E. coli BL21(DE3)
T2 sequence (Q16690 178-319 limits assumed): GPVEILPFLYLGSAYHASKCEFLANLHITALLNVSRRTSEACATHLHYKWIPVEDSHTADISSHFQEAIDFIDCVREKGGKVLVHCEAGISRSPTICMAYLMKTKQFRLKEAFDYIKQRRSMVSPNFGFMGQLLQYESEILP
Source text: p-Nitrophenolphosphatase (pNPP) Activity Assay.
To measure enzymatic activity of the DUSP5 PD and the inhibitory capacity of selected molecules, an in vitro phosphatase assay was developed based on previous studies (27). In this assay, DUSP5 PD dephosphorylates the substrate p-nitrophenol phosphate (pNPP, Sigma Aldrich), yielding p-nitrophenolate, which absorbs at 405 nm with an extinction coefficient of 18,000 M-1 cm-1.
Thus, an increase in absorbance at 405 nm corresponds to the turnover of pNPP top-nitrophenolate. The assay was initially optimized in 1 mL quartz cuvettes, then was subsequently optimized for and validated in a 96-well plate format. All IC50 values were obtained using the 96-well plate assay format (see below). The assay buffer contained 100 mM Tris, 100 mM sodium chloride, 5 mM magnesium chloride, and 1 mM dithiothreitol (DTT) at pH 7.5. The pNPP substrate was prepared as a 50 mM stock by dissolving the solid substrate in assay buffer. The DUSP5 PD and pNPP were assayed initially in a cuvette (1 mL total volume) and initial velocities were fitted to the Michaelis-Menten equation (1)
where v is the initial velocity, Vmax is the maximum velocity, Km is the Michaelis constant, and [S] is the concentration of pNPP. Data were fitted using a nonlinear least squares fit to eq. 1, with GraphPad Prism 6 software.
For the 96-well plate validation assay, sodium orthovanadate (Sigma Aldrich) was utilized as a positive control for inhibition (Swarup et al., Biochem Biophys Res Commun. 1982; 107:1104-9.) at a final concentration of 10 μM, to completely block activity. All plate assays were performed in standard 96-well clear bottom plates (Thermo Scientific Nunc) with a total assay volume of 200 μL, using a SpectraMax M5 Microplate Reader (Molecular Devices). The plate validation assay was performed with replicate columns of positive control wells, negative control wells and blank wells. Blank columns contained only buffer and pNPP. Negative control (uninhibited) contained buffer, pNPP, and DUSP5 PD; and, positive control contained the same components, but also contained 10 μM sodium orthovanadate. The plate was then shaken and allowed to equilibrate in the spectrophotometer at 25° C. for 30 min. After incubation, 4 μL of a […] was dispensed into appropriate wells utilizing a single-channel pipette. This produced a final enzyme concentration of 1 μM. Before a read was taken, the plate was shaken for five seconds. The initial rate for the DUSP5 PD reaction was linear for approximately 90 min; and, the plate was kept in the spectrophotometer at 25° C. for an additional 80 min after the kinetic read. The endpoint reading was subsequently taken at 90 min after initiation of reaction. Slopes from the kinetic read, as well as single-point absorbance values at the 90-minute endpoint read, were then averaged. For blank wells and positive control wells, both slope values (continuous assay) and single point absorbance values (fixed time assay) were approximately zero, as expected. Standard deviations were calculated and a Z′ value (Zhang et al., J Biomol Screening. 1999; 4:67-73) subsequently determined using the following equation: […]
IC50 values were obtained using the assay described above, in 96 well plates. The maximum inhibitor concentration screened in any plate was […] and the minimum was 1.5 μM. The IC50 plate was designed so that the first column of wells served as blanks, with wells containing only buffer and substrate. The second column of wells functioned as the plate negative control, with each well containing buffer, substrate and enzyme. The remaining wells in the plate contained buffer, substrate, enzyme, and varying amounts of inhibitor, with inhibitor concentration increasing from left to right across the plate. Data points were collected in triplicate, and inhibitor concentrations were chosen to provide data equally spread on a logarithmic scale. […]

DUSP5 (PD)-WT = molecular target: T3, DUSP5 (PD)-WT (Homo sapiens, UniProt Q16690); test: Phosphatase inhibition profiles (Table 4), initial rates; type: biochemical; conditions: read-out: IC50 DUSP5 (PD)-WT (mean ± SE)
T3 construct: hexa-histidine (N); made in house; host or cells: E. coli BL21(DE3)
T3 sequence (Q16690 178-319): T2 sequence (Q16690 178-319 limits assumed)

PTPN1 = molecular target: T4, PTPN1 (Homo sapiens, UniProt P18031); test: as above; type: biochemical; conditions: read-out: IC50 PTPN1 (mean ± SE)
T4 sequence (P18031 1-435): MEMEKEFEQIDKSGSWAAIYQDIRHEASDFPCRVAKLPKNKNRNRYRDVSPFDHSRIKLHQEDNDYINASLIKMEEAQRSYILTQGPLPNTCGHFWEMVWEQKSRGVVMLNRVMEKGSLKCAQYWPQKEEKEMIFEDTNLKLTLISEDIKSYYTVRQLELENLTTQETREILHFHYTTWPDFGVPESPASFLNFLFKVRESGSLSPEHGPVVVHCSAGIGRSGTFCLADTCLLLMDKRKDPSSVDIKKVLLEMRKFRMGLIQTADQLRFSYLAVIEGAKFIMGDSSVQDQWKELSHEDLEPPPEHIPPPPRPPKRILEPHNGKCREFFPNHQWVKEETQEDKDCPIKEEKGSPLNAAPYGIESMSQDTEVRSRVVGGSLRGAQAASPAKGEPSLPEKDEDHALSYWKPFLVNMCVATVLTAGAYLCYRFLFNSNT

[3] = Aggregation of compounds (nephelometry; detergent treatment); type: physicochemical
Protocol: Nephelometry is a technique for measuring the relative aggregation of particles in solution, based on the light-scattering properties of molecular aggregates (30). To explore the ability of the chemicals studied herein to form aggregates, which can lead to artifactual inhibition effects, nephelometry was performed. Compounds were tested for aggregation in 96-well plates using a buffer containing 100 mM Tris base, 100 mM sodium chloride, and 5 mM magnesium chloride at pH 7.5. Each compound analyzed in these experiments contained concentrations of compound ranging from 10-100 μM, recorded in quadruplet. Each plate was analyzed at two separate gain values of 52 and 72. Data were collected using a BMG NEPHELOstar Plus, equipped with a 635 nm laser.
To investigate whether Suramin aggregates in solution, a property often investigated with small molecules, we performed detergent treatment assays. […] NTS and Suramin were compared using DUSP5 PD IC50 assays performed with and without detergent. […] We concluded that Suramin forms aggregates in vitro which can lead to non-specific protein inhibition effects. Beyond any adverse implications for repurposing Suramin in this project, the aggregation phenomenon raises more global concerns regarding the current clinical use of Suramin, and may in part explain some of the known toxicity associated with Suramin (32).

SHP-1 = SHP-1 (Homo sapiens, UniProt P29350); test: NCI compound library screen, phosphatase inhibitory activity; type: biochemical
PTP1B = PTP1B (Homo sapiens, UniProt P18031); test: as above; type: biochemical
phosphatase [4] = test: Phosphatase inhibitory activity (Example 3, range of activity); type: biochemical
[5] = tested on: pERK levels in HUVEC cells; test: pERK levels in HUVEC cells, western blot; type: cell-based, Human; conditions: HUVECs incubated 2 hours, pERK relative to total ERK; Na3VO4 at 200 μM
Protocol: Cell Culture and Western Blots.
Human Umbilical Vein Endothelial Cells (HUVECs) were maintained in EBM2 media (Lonza, CC-3156) supplemented with a combined serum and growth factor kit (Lonza, CC-4176). Cells were incubated with the indicated concentrations of drug for 2 h and lysed with RIPA buffer (Sigma, R0278) on ice. Cell lysates were cleared by centrifugation at 16,300×g for 30 min. The resulting supernatants were isolated and protein concentration determined by Lowry assay (DC protein assay, BioRad). 2× laemmli sample buffer was added to equal amounts of protein and separated by SDS-PAGE. The protein gels were transferred to polyvinylidene difluoride (PVDF) and immunoblotted using antibodies to phosphorylated ERK (Cell Signaling, #9106) and total ERK (Cell Signaling, #9102). Bound antibodies were visualized using horseradish peroxidase-linked anti-rabbit IgG, anti-mouse IgG (Cell Signaling Tech., #7074 and #7076) and ECL reagents (Thermo Scientific, 34080) according to the manufacturer's protocol.

DUSP5 PD(WT) [6] = molecular target: T2, DUSP5 PD(WT); test: pNPP phosphatase activity assay with DUSP5 PD(WT); type: biochemical; conditions: 1 mL cuvettes, pNPP substrate

Sequence of SHP-1 (P29350 whole entry): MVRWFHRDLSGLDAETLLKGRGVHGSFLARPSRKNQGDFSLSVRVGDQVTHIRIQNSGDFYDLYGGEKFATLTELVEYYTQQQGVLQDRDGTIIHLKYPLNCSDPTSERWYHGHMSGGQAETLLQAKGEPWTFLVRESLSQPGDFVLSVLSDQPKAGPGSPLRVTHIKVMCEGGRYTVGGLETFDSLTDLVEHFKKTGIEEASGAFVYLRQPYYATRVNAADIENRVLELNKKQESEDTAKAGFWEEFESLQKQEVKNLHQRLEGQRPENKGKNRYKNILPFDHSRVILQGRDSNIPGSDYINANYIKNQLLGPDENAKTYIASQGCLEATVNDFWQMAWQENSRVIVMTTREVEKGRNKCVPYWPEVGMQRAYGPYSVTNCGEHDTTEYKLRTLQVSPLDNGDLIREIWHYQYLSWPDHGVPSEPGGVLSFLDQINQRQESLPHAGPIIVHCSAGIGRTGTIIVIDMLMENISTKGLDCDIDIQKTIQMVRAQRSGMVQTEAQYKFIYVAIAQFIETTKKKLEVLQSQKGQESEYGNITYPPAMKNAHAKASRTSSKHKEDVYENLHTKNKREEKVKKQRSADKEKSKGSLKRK

O=S(=O)(O)c1ccc2cc(N=Nc3cc(S(=O)(=O)O)c4cccnc4c3O)ccc2c1 [NSC-87877]
range of phosphatase inhibition, published compound (phosphatase [1]): ~1.7 mM

O=S(=O)(O)c1ccc2c(S(=O)(=O)O)cc(S(=O)(=O)O)cc2c1 [NTS, naphthalene 1,3,6-trisulfonate]
IC50 (full-length DUSP5; full-length DUSP5, pERK/ERK2 substrate): 221 ± 87 µM

O=S(=O)(O)c1cc(S(=O)(=O)O)c2[nH]c3c(S(=O)(=O)O)cc(S(=O)(=O)O)cc3c2c1 [RR506, Carbazole-1,3,6,8-tetrasulfonic acid, Tetrasodium Salt]
IC50's, range in words (DUSP5 PD(WT) [2]; enzyme inhibition (FIG. 3)): mM range

O=S(=O)(O)c1cc(Oc2cc(S(=O)(=O)O)cc(S(=O)(=O)O)c2O)c(O)c(S(=O)(=O)O)c1 [RR533]
IC50 (DUSP5 (PD)-WT): 26.4 ± 7.2 µM
IC50 (PTPN1): 106 ± 0.1 µM

Nc1cccc2c(O)cc(S(=O)(=O)O)cc12 [RR535]
aggregation [3]: do not aggregate
IC50 (PTPN1): > 1000 µM
phosphatase inhibitory activity (SHP-1): phosphatase inhibitory activity
phosphatase inhibitory activity (PTP1B): phosphatase inhibitory activity
range in which active (phosphatase [4]; monomer): ~1e-06 mM

O=S(=O)(O)c1cc(O)c2cccc(N=Nc3cccc4c(O)cc(S(=O)(=O)O)cc34)c2c1 [RR601]
aggregation [3]: do not aggregate
IC50 (DUSP5 (PD)-WT): 30 ± 3 µM
IC50 (PTPN1): 2.5 ± 0.1 µM
range in which active (phosphatase [4]; dimer): ~30 mM

O=S(=O)([O-])c1cc2c(O)c(c1)Cc1cc(S(=O)(=O)[O-])cc(c1O)Cc1cc(S(=O)(=O)[O-])cc(c1O)Cc1cc(S(=O)(=O)[O-])cc(c1O)C2.[Na+].[Na+].[Na+].[Na+] [RR701]
activity in DUSP5:pERK assay, in words (full-length DUSP5; in vitro, western blot): robust activity

Cc1ccc(C(=O)Nc2ccc(S(=O)(=O)O)c3cc(S(=O)(=O)O)cc(S(=O)(=O)O)c23)cc1NC(=O)c1cccc(NC(=O)Nc2cccc(C(=O)Nc3cc(C(=O)Nc4ccc(S(=O)(=O)O)c5cc(S(=O)(=O)O)cc(S(=O)(=O)O)c45)ccc3C)c2)c1 [Suramin]
inhibition at 1 µM (DUSP5 PD(WT) [2]; 1 μM Suramin, 5 mM pNPP, increasing Triton X-100, read-out: plateau level inhibition with increasing detergent): 30%
effect of detergent on inhibition (DUSP5 PD(WT) [2]; IC50 measurement in presence and absence of 0.5% Triton): loss of some inhibitory capability in the presence of detergent
mechanism of inhibition (DUSP5 PD(WT) [2]; inhibition profile versus pNPP): competitive inhibition
Ki (DUSP5 PD(WT) [2]; read-out: Ki, competitive inhibition, varied pNPP and inhibitor): 24.6 µM and 25 µM
effect on pERK levels [5]: significant decrease in pERK levels
aggregation [3]: Aggregates

[Na+].[Na+].[Na+].[O]=[V]([O-])([O-])[O-] [sodium orthovanadate]
effect on pERK levels [5]: expected increase in pERK levels
IC50 (DUSP5 PD(WT) [6]): 0.008 ± 0.008 µM
